From US20040180035A1, “IL-15 immunoconjugates and uses thereof” (EMD Lexigen Research Center Corp., priority 1998, published 2004)

Tested on: LLC-Ep tumors
Assay: LLC-Ep subcutaneous tumor growth in C57BL/6 mice (Example 6)
Type: in vivo
Conditions: after treatment for 22 days; fusion protein 25 μg/mouse i.v., 5 daily injections; indomethacin 20 μg/mL in drinking water
Method: Female C57B1/6 mice were injected subcutaneously in the mid-back with LLC-Ep cells (2×10^6 cells per injection). When the tumors reached 600-1200 mm^3, the mice were sacrificed. The skin overlying the tumor was cleaned with betadine and ethanol, the tumors excised and necrotic tissue discarded. A suspension of tumor cells in phosphate buffered saline was prepared by passing viable tumor tissue through a sieve and then through a series of sequentially smaller […] needles of 22- to 30-gauge. The cells were adjusted to a concentration of 1×10^7 cells/mL and placed on ice. C57BL/6 mice then were injected with 0.1 mL of the freshly resuspended cells (1×10^6 cells/mouse) in the proximal midline of the subcutaneous dorsa.
When the tumors reached 100-200 mm^3 in size (about 7 to 14 days), the mice were randomized into four groups, 5 mice per group. Group 1 received intravenous injections of 0.2 mL of PBS daily. Group 2 received 5 daily intravenous injections of huKS-huγ1-huIL2 (25 μg/mouse) in PBS. Group 3 received indomethacin orally in drinking water (20 μg/mL, or about 60-70 μg of indomethacin consumed daily per mouse) throughout the treatment period. Group 4 received 5 daily intravenous injections of huKS-huγ1-huIL2(25 μg/mouse), and indomethacin orally in drinking water (20 μg/mL) throughout the treatment period. Tumor volumes were measured as described in Example 3. […]

COc1ccc2c(c1)c(CC(=O)O)c(C)n2C(=O)c1ccc(Cl)cc1 [indomethacin] was tested, and the T/C ratio was 0.60.
